The source of these data is patent US20110008258A1, “METHODS RELATING TO BREATHING DISORDERS” (SAMSARA MEDICIN AB, priority 2007, published 2011).

Molecules are shown by their SMILES.

For one data set, the system named is EP3R^+/+ mice. Nature of the data set: Flow plethysmography after icv PGE2, EP3R+/+ mice. It counts as in vivo. The protocol:
(§1) A Plexiglas chamber (35 ml) was connected to a highly sensitive direct airflow sensor (0-200 ml/min; TRN3100, Kent Scientific Corporation, Litchfield, Conn., USA). The flow signal was amplified by a four-channel amplifier (P/N 770 S/N 5; SENSElab, Somedic Sales, Hörby, Sweden), converted to digital signal, and recorded at 100 Hz by an online computer using DasyLab software (Datalog GmbH & Co. KG, Mönchengladbach, Germany). Respiratory frequency (fR, breaths/min), tidal volume (VT, μl/breath), and minute ventilation (VE, μl/min) were calculated. Chamber temperature was maintained at 30.1±0.1° C. in accordance with the documented thermoneutral range for neonatal mice by immersing the chamber in a thermostat-controlled water bath (49). As described previously, the chamber was calibrated by repeatedly injecting standardized volumes of air (5-200 μl) with preset precision syringes (Hamilton Bonaduz AG, Switzerland) (6). 95% of gas exchange occurred within 35 s of administration, which was verified by CO2 content analyses (Metek CD-3A and S-3A, PA, USA).
(§2) Respiration was examined using flow plethysmography in 9 d-old C57BL/6 mice (n=38) with variable expression of EP3R. After the administration of sevoflurane anesthesia for approximately 60 s, PGE2 (4 nmol in 2-4 μl aCSF) or vehicle was slowly injected into the lateral ventricle using a thin pulled glass pipette attached to polyeethylene tubing. The mouse was then placed immediately into the plethysmograph chamber. After a 10 min recovery period in normoxia, the mouse was exposed to hyperoxic and anoxic challenge as described above. Animal skin temperature was recorded at baseline and at each subsequent minute using a thermistor temperature probe.
(§3) Periods of calm respiration without movement artefact were selected for analysis. Mean fR, VT, and VE values during normoxia and hyperoxia as well as the anoxic response (i.e., hyperpnea, primary apnea, gasping, secondary apnea, and autoresuscitation) were analyzed as described previously (6, the disclosure of which is expressly incorporated herein by reference). Survival was recorded for all animals. Apnea was defined as cessation of breathing for three respiratory cycles. Regularity of breathing was quantified using the coefficient of variation (C.V.) (i.e., SD divided by mean of breath-by-breath interval during 60 periods).

The test system of the next data set is EP3R^−/− mice. Nature of the data set: Flow plethysmography after icv PGE2, EP3R−/− mice. It counts as in vivo. The protocol: as §1, §2, §3
Data set [1] concerns brainstem spinal-cord preparations from EP3R^+/+ pups. Nature of the data set: En bloc brainstem-spinal cord preparation, respiratory activity, EP3R+/+. Further details: species or system mice. The following applies: PGE2 20 μg/l, 2-3 d old EP3R+/+ pups, n=5, reversible. The method, then: (§4) Brainstem-spinal cord preparations were rapidly isolated from 2 d-old C57BL/6 mice with EP3R^+/+ and EP3R^−/− genotypes as described previously (n=11) (50, 51, both of which are expressly incorporated herein by reference). Respiratory-related activity corresponding to the inspiratory rhythm was monitored at the C4 ventral root through a glass suction electrode, recorded (5 kHz), and analyzed offline. Control recordings were performed for at least 20 min before perfusion with aCSF containing PGE2 followed by an aCSF washout period.
(§5) The brainstem was rostrally decerebrated between the cranial nerve VI roots and the lower border of the trapezoid body so that the pons was removed. The preparation was continuously perfused in a 1.5 ml chamber with artificial cerebrospinal fluid (aCSF): 130 mM NaCl, 3.3 mM KCl, 0.8 mM KH2PO4, 0.8 mM CaCl2, 1.0 mM MgCl2, 26 mM NaHCO3, and 30 mM D-glucose at 28° C. (flow rate, 3-4 ml/min). The solution was continuously equilibrated with 95% O2 and 5% CO2 to pH 7.4 (50, 51).

For data set [2], the system named is brainstem spinal-cord preparations from EP3R^−/− mice. Nature of the data set: En bloc brainstem-spinal cord preparation, respiratory activity, EP3R−/−. The following applies: PGE2 20 μg/l, n=6. The method, then:
as §4, §5

How the values of data set [3] were obtained: PGE2 and metabolites thereof may persist and may be measured even after more than 72 hours. Half time for PGE2 degradation various considerably pending on the cellular environment. Half-life of PGE2 can vary from a few minutes to several hours. When evaluating PGE2 produced in the body and secreted in urine or other body fluids it is important to also measure its metabolites.

Setting [4] is: 9 d-old EP3R+/+ mice, PGE2 icv, hyperoxia (100% O2).
[5] abbreviates: 9 d-old EP3R+/+ mice, PGE2 icv, normoxia.
The mark [6] stands for this setting: 9 d-old EP3R−/− mice, PGE2 icv, hyperoxia (100% O2).
[7] abbreviates: 9 d-old EP3R−/− mice, PGE2 icv, normoxia.

Regarding `CCCCC[C@H](O)/C=C/[C@H]1[C@H](O)CC(=O)[C@@H]1C/C=C\CCCC(=O)O` [PGE2, Prostaglandin E2], the “fR, normoxia” value in the data set on EP3R^+/+ mice (9 d-old EP3R+/+ mice, PGE2 4 nmol icv, normoxia) came out at 247 ± 13 breaths/min; in the data set with EP3R^−/− mice (9 d-old EP3R−/− mice, PGE2 4 nmol icv, normoxia), 256 ± 10 breaths/min. For the same compound, the “Hyperpnea fR” value in the data set with EP3R^+/+ mice (9 d-old EP3R+/+ mice, PGE2 icv, anoxia (100% N2)) stood at 267 ± 11 breaths/min; with EP3R^−/− mice (9 d-old EP3R−/− mice, PGE2 icv, anoxia (100% N2)), 290 ± 9 breaths/min. Also, the “VE, hyperoxia” value turned out to be 745 ± 102 µL/min/g in the data set with EP3R^+/+ mice (setting [4]) and 1509 ± 299 µL/min/g in the data set on EP3R^−/− mice (setting [6]). For the same compound, the “VT, hyperoxia” value in the data set on EP3R^+/+ mice (setting [4]) amounted to 4.4 ± 1.1 μl/br/g; in the data set on EP3R^−/− mice (setting [6]) it was 6.7 ± 1.3 μl/br/g. Besides, the “fR, hyperoxia” value in the data set on EP3R^+/+ mice (setting [4]) is reported as 190 ± 16 breaths/min; in the data set with EP3R^−/− mice (setting [6]) it was 229 ± 9 breaths/min. The “VE, normoxia” value was determined as 901 ± 154 µL/min/g with EP3R^+/+ mice (setting [5]) and 1350 ± 129 µL/min/g in the data set with EP3R^−/− mice (setting [7]). The “VT, normoxia” value was found to be 3.7 ± 0.4 μl/br/g in the data set on EP3R^+/+ mice (setting [5]) and 5.2 ± 0.5 μl/br/g in the data set with EP3R^−/− mice (setting [7]). Further, the “gasping response and anoxic survival” value is “did not alter the gasping response or anoxic survival” in the data set with EP3R^+/+ mice (EP3R+/+ mice, PGE2 icv, compared to vehicle) and “did not alter the gasping response or anoxic survival” in the data set on EP3R^−/− mice (EP3R−/− mice, PGE2 icv, compared to vehicle). In addition, the “apnea frequency and breathing pattern” value in the data set with EP3R^+/+ mice (EP3R+/+ mice, PGE2 icv, normoxia and hyperoxia, vs vehicle) is “induced a significantly greater apnea frequency and irregular breathing pattern”. The induction of apneas result in the data set with EP3R^−/− mice (EP3R−/− mice, PGE2 icv, normoxia and hyperoxia, vs vehicle) is listed as “not observed”. For the same compound, the “respiratory rhythm generation, relative to control frequency (fR)” value in data set [1] was 64±5 % of control frequency. The “effect on respiratory activity” value in data set [2] is “did not affect respiratory activity”. Moreover, the “half-life of PGE2” value in data set [3] lay within 12 to 18 h.
